Laboratory results as given in patent publication US10246420B2, “Pyrazole derivatives” (BAYER CROPSCIENCE AKTIENGESELLSCHAFT, priority 2014, dated 2019).
Read-outs that look alike come from different tables or passages of the source.

Test: Log P by HPLC on reversed phase columns (EEC directive 79/831 Annex V.A8)
Format: physicochemical
Settings: for chromatographic logP: LC-UV, acidic range, 0.1% formic acid in water and acetonitrile as eluent, read-out: LogP [a]
Protocol: Measurement of Log P values was performed according to EEC directive 79/831 Annex V.A8 by HPLC (High Performance Liquid Chromatography) on reversed phase columns with the following methods:
[^a] Log P value is determined by measurement of LC-UV, in an acidic range, with 0.1% formic acid in water and acetonitrile as eluent (linear gradient from 10% acetonitrile to 95% acetonitrile).
[^b] Log P value is determined by measurement of LC-UV, in a neutral range, with 0.001 molar ammonium acetate solution in water and acetonitrile as eluent (linear gradient from 10% acetonitrile to 95% acetonitrile).
[^c] Log P value is determined by measurement of LC-UV, in an acidic range, with 0.1% phosphoric acid and acetonitrile as eluent (linear gradient from 10% acetonitrile to 95% acetonitrile).
Calibration was done with straight-chain alkan-2-ones (with 3 to 16 carbon atoms) with known Log P values (measurement of Log P values using retention times with linear interpolation between successive alkanones). Lambda-max-values were determined using UV-spectra from 200 nm to 400 nm and the peak values of the chromatographic signals.

Row | Compound | LogP [a] | other results
1 | CC(=O)Cc1ccc(O)cc1F [1-(2-fluoro-4-hydroxyphenyl)acetone] |  | chromatographic logP: 1.13
2 | C=CCOc1cc(F)c(Nc2c(-c3ccc(F)cc3Cl)c(C)nn2C)c(F)c1 [Example I-02] | 3.54^[a]; | LogP [c]: 3.40^[c]
3 | C#CCOc1cc(F)c(Nc2c(-c3ccc(F)cc3Cl)c(C)nn2C)c(F)c1 [Example I-03] | 3.09^[a]; | LogP [c]: 2.90^[c]
4 | C=CCOc1cc(F)c(N(C)c2c(-c3ccc(F)cc3Cl)c(C)nn2C)c(F)c1 [Example I-04] | 4.40^[a] | 
5 | C#CCOc1cc(F)cc(F)c1Nc1c(-c2ccc(Cl)cc2Cl)c(C)nn1C [Example I-05] | 3.69^[a] | 
6 | C#CCOc1cc(F)c(Nc2c(-c3ccccc3F)c(C)nn2C)c(F)c1 [Example I-06] | 2.78^[a] | 
7 | C#CCOc1cc(F)cc(F)c1Nc1c(-c2ccccc2F)c(C)nn1C [Example I-07] | 2.96^[a] | 
8 | C=CCOc1cc(F)c(Nc2c(-c3ccc(Cl)cc3Cl)c(C)nn2C)c(F)c1 [Example I-08] | 3.97^[a] | 
9 | C#CCOc1cc(F)c(Nc2c(-c3ccc(Cl)cc3Cl)c(C)nn2C)c(F)c1 [Example I-09] | 3.44^[a] | 
10 | C#CCOc1cc(F)c(Nc2c(-c3cc(OC)cc(OC)c3)c(C)nn2C)c(F)c1 [Example I-10] | 2.73^[a] | 
11 | C=CCOc1cc(F)c(Nc2c(-c3cc(OC)cc(OC)c3)c(C)nn2C)c(F)c1 [Example I-11] | 3.11^[a] | 
12 | C#CCOc1cc(F)cc(F)c1Nc1c(-c2cc(OC)cc(OC)c2)c(C)nn1C [Example I-12] | 2.85^[a] | 
13 | C=CCOc1cc(F)c(Nc2c(-c3ccccc3F)c(C)nn2C)c(F)c1 [Example I-13] | 3.22^[a] | 
14 | C#CCOc1cc(F)c(Nc2c(-c3ccc(F)cc3F)c(C)nn2C)c(F)c1 [Example I-14] | 2.90^[a] | 
15 | C=CCOc1cc(F)c(Nc2c(-c3ccc(F)cc3F)c(C)nn2C)c(F)c1 [Example I-15] | 3.33^[a] | 
16 | C#CCOc1cc(F)cc(F)c1Nc1c(-c2ccc(F)cc2F)c(C)nn1C [Example I-16] | 3.07^[a] | 
17 | C#CCOc1cc(F)c(Nc2c(-c3ccc(OC)cc3F)c(C)nn2C)c(F)c1 [Example I-17] | 2.74^[a] | 
18 | C=CCOc1cc(F)c(Nc2c(-c3ccc(OC)cc3F)c(C)nn2C)c(F)c1 [Example I-18] | 3.11^[a] | 
19 | C#CCOc1cc(F)cc(F)c1Nc1c(-c2ccc(OC)cc2F)c(C)nn1C [Example I-19] | 2.86^[a] | 
20 | C#CCOc1cc(F)c(Nc2c(-c3ccc(Cl)nc3)c(C)nn2C)c(F)c1 [Example I-20] | 2.56^[a]; | LogP [b]: 2.54^[b]
21 | C=CCOc1cc(F)c(Nc2c(-c3ccc(Cl)nc3)c(C)nn2C)c(F)c1 [Example I-21] | 2.95^[a]; | LogP [b]: 2.92^[b]
22 | C#CCOc1cc(F)cc(F)c1Nc1c(-c2ccc(OCC=C)cc2F)c(C)nn1C [Example I-22, 4-[4-(Allyloxy)-2-fluorophenyl]-N-[2,4-difluoro-6-(prop-2-yn-1-yloxy)phenyl]-1,3-dimethyl-1H-pyrazol-5-amine] |  | chromatographic logP (reversed phase HPLC columns): 3.3

Row | Compound | LogP [a] | other results
23 | C=CCOc1ccc(-c2c(C)nn(C)c2Nc2c(F)cc(OCC=C)cc2F)c(F)c1 [Example I-23] | 3.62^[a] | 
24 | C#CCOc1cc(F)c(Nc2c(-c3ccc(OCC=C)cc3F)c(C)nn2C)c(F)c1 [Example I-24] | 3.17^[a] | 
25 | C#CCOc1cc(F)cc(F)c1Nc1c(-c2ccc(Cl)nc2)c(C)nn1C [Example I-25] | 2.69^[a]; | LogP [b]: 2.63^[b]
26 | C#CCOc1ccc(-c2c(C)nn(C)c2Nc2c(F)cc(F)cc2OCC#C)c(F)c1 [Example I-26] | 2.88^[a] | 
27 | C#CCOc1ccc(-c2c(C)nn(C)c2Nc2c(F)cc(OCC#C)cc2F)c(F)c1 [Example I-27] | 2.77^[a] | 
28 | C#CCOc1ccc(-c2c(C)nn(C)c2Nc2c(F)cc(OCC=C)cc2F)c(F)c1 [Example I-28] | 3.13^[a] | 
29 | C#CCOc1ccc(Nc2c(-c3ccc(F)cc3Cl)c(C)nn2C)c(F)c1 [Example I-29] | 3.25^[a]; | LogP [b]: 3.22^[b]
30 | C=CCOc1ccc(Nc2c(-c3ccc(F)cc3Cl)c(C)nn2C)cc1 [Example I-30] | 3.51^[a]; | LogP [b]: 3.52^[b]
31 | C#CCOc1ccc(Nc2c(-c3ccc(F)cc3Cl)c(C)nn2C)cc1 [Example I-31] | 3.09^[a]; | LogP [b]: 3.06^[b]
32 | C#CCOc1ccc(Nc2c(-c3ccc(F)cc3Cl)c(C)nn2C)c(Cl)c1 [Example I-32] | 3.65^[a]; | LogP [b]: 3.59^[b]
33 | C#CCOc1cc(F)c(Nc2c(-c3ccc(F)cc3Cl)c(C)nn2C)cc1F [Example I-33] | 3.33^[a]; | LogP [b]: 3.23^[b];; LogP [c]: 3.20^[c]
34 | C=CCOc1cc(F)c(Nc2c(-c3ccc(F)cc3Cl)c(C)nn2C)cc1F [Example I-34] | 3.74^[a]; | LogP [b]: 3.66^[b];; LogP [c]: 3.60^[c]
35 | C=CCOc1ccc(Nc2c(-c3ccc(F)cc3Cl)c(C)nn2C)cc1F [Example I-35] | 3.61^[a]; | LogP [b]: 3.56^[b];; LogP [c]: 3.50^[c]
36 | C#CCOc1ccc(Nc2c(-c3ccc(F)cc3Cl)c(C)nn2C)cc1F [Example I-36] | 3.17^[a]; | LogP [b]: 3.14^[b];; LogP [c]: 3.10^[c]
37 | C=CCOc1ccc(F)c(Nc2c(-c3ccc(F)cc3Cl)c(C)nn2C)c1 [Example I-37] | 3.78^[a]; | LogP [b]: 3.73^[b];; LogP [c]: 3.70^[c]
38 | C#CCOc1ccc(F)c(Nc2c(-c3ccc(F)cc3Cl)c(C)nn2C)c1 [Example I-38] | 3.33^[a]; | LogP [b]: 3.27^[b];; LogP [c]: 3.20^[c]
39 | C#CCOc1cc(F)c(Nc2c(-c3ccc(Cl)cc3Cl)c(C)nn2C)cc1F [Example I-39] | 3.70^[a]; | LogP [b]: 3.62^[b];; LogP [c]: 3.60^[c]
40 | C#CCOc1ccc(Nc2c(-c3ccc(Cl)cc3Cl)c(C)nn2C)c(Cl)c1 [Example I-40] | 4.13^[a]; | LogP [b]: 4.06^[b];; LogP [c]: 4.00^[c]
41 | C=CCOc1ccc(Nc2c(-c3ccc(F)cc3Cl)c(C)nn2C)c(Cl)c1 [Example I-41] | 4.23^[a]; | LogP [b]: 4.20^[b]
42 | C#CCOc1cc(F)cc(F)c1Nc1c(-c2ccc(F)cc2Br)c(C)nn1C [Example I-42] | 3.33^[a]; | LogP [b]: 3.32^[b]
43 | C#CCOc1ccccc1Nc1c(-c2ccc(F)cc2Br)c(C)nn1C [Example I-43] | 3.60^[a] | 
44 | C=CCOc1ccc(F)cc1Nc1c(-c2ccc(F)cc2Br)c(C)nn1C [Example I-44] | 4.08^[a] | 

Row | Compound | LogP [a] | other results
45 | C#CCOc1ccc(F)cc1Nc1c(-c2ccc(F)cc2Br)c(C)nn1C [Example I-45] | 3.64^[a] | 
46 | C=CCOc1cc(C)ccc1Nc1c(-c2ccc(F)cc2Br)c(C)nn1C [Example I-46] | 4.39^[a] | 
47 | C#CCOc1cc(C)ccc1Nc1c(-c2ccc(F)cc2Br)c(C)nn1C [Example I-47] | 3.87^[a] | 
48 | C=CCOc1ccccc1Nc1c(-c2ccc(F)cc2Cl)c(C)nn1C [Example I-48] | 3.99^[a] | 
49 | C#CCOc1ccccc1Nc1c(-c2ccc(F)cc2Cl)c(C)nn1C [Example I-49] | 3.53^[a] | 
50 | C=CCOc1ccc(F)cc1Nc1c(-c2ccc(F)cc2Cl)c(C)nn1C [Example I-50] | 4.01^[a] | 
51 | C#CCOc1ccc(F)cc1Nc1c(-c2ccc(F)cc2Cl)c(C)nn1C [Example I-51] | 3.58^[a] | 
52 | C=CCOc1cc(C)ccc1Nc1c(-c2ccc(F)cc2Cl)c(C)nn1C [Example I-52] | 4.32^[a] | 
53 | C#CCOc1cc(C)ccc1Nc1c(-c2ccc(F)cc2Cl)c(C)nn1C [Example I-53] | 3.83^[a] | 
54 | C=CCOc1ccccc1Nc1c(-c2ccc(Cl)cc2Cl)c(C)nn1C [Example I-54] | 4.49^[a] | 
55 | C#CCOc1ccccc1Nc1c(-c2ccc(Cl)cc2Cl)c(C)nn1C [Example I-55] | 3.96^[a] | 
56 | C=CCOc1ccc(F)cc1Nc1c(-c2ccc(Cl)cc2Cl)c(C)nn1C [Example I-56] | 4.49^[a] | 
57 | C=CCOc1cc(C)ccc1Nc1c(-c2ccc(Cl)cc2Cl)c(C)nn1C [Example I-57] | 4.85^[a] | 
58 | C#CCOc1cc(C)ccc1Nc1c(-c2ccc(Cl)cc2Cl)c(C)nn1C [Example I-58] | 4.30^[a] | 
59 | C#CCOc1cc(F)cc(F)c1Nc1c(-c2c(F)cc(F)cc2F)c(C)nn1C [Example I-59] | 3.10^[a] | 
60 | C#CCOc1cc(F)cc(F)c1Nc1c(-c2c(F)cc(Cl)cc2F)c(C)nn1C [Example I-60] | 3.49^[a] | 
61 | C#CCOc1cc(F)cc(F)c1Nc1c(-c2c(F)cc(OC)cc2F)c(C)nn1C [Example I-61] | 3.00^[a] | 
62 | C#CCOc1cc(F)c(Nc2c(-c3c(F)cc(OC)cc3F)c(C)nn2C)c(F)c1 [Example I-62] | 2.85^[a] | 
63 | C#CCOc1cc(F)c(-c2c(C)nn(C)c2Nc2c(F)cc(F)cc2OCC#C)c(F)c1 [Example I-63] | 2.99^[a] | 
64 | C#CCOc1cccc(Cl)c1Nc1c(-c2ccc(F)cc2Cl)c(C)nn1C [Example I-64] | 3.56^[a] | 
65 | C=CCOc1cccc(Cl)c1Nc1c(-c2ccc(F)cc2Cl)c(C)nn1C [Example I-65] | 4.06^[a] | 
66 | C#CCOc1cccc(Cl)c1Nc1c(-c2ccc(Cl)cc2Cl)c(C)nn1C [Example I-66] | 3.99^[a] | 
